Like-named read-outs stand apart in the source and are kept apart here.
Columns and labels:
Cf1 male mice [1] = assay: Writhing reflex, 0.6% acetic acid; type: in vivo; set-up: response vs control in vivo: dose or concentration left out as unconfirmed
Elastase [2] = assay: Human osteoporosis fibroblasts elastase activity; type: cell-based; settings: read-out: Elastase IC50; Table XI; human osteoporosis fibroblasts, 60 min incubation
Source text: (§1) 2. Elastase- N-succinyl-L-alanyl-L-alanine-p-nitroanilide, pH 8.0, p-nitro anilide 410 nm.

Cathepsin [3] = assay: Human leukocyte cathepsin; type: cell-based; settings: read-out: Cathepsin IC50; Table XII; human leukocytes, 60 min incubation
Source text: 5. Human peripheral leukocytes, RPMI-1788
(§2) 2. Acid Cathepsin D -azocasein-pH 5.0, hydrolytic azo-peptide produce 366 nm.

Acid phosphatase [4] = assay: Human osteoporosis fibroblasts acid phosphatase activity; type: cell-based; settings: read-out: Acid Phosphatase IC50; Table X; human osteoporosis fibroblasts
Source text: (§3) 1. Acid phosphatase -beta glycerol-3-phosphate, pH 5.0, released IP 720 nm.

Trypsin [5] = assay: Mouse macrophage trypsin (BAEE) activity; type: cell-based
Prostaglandin synthetase = target: T1, Prostaglandin synthetase (Bos taurus, UniProt O62664); assay: Prostaglandin synthetase (cyclooxygenase), purified beef seminal vesicle; type: biochemical; settings: Table IX; commercial enzyme preparation; read-out: Beef Prostaglandin Cyclooxygenase IC50
T1 construct: Prostaglandin synthetase purified beef seminal vesicle; from tissue
T1 sequence (O62664 25-600): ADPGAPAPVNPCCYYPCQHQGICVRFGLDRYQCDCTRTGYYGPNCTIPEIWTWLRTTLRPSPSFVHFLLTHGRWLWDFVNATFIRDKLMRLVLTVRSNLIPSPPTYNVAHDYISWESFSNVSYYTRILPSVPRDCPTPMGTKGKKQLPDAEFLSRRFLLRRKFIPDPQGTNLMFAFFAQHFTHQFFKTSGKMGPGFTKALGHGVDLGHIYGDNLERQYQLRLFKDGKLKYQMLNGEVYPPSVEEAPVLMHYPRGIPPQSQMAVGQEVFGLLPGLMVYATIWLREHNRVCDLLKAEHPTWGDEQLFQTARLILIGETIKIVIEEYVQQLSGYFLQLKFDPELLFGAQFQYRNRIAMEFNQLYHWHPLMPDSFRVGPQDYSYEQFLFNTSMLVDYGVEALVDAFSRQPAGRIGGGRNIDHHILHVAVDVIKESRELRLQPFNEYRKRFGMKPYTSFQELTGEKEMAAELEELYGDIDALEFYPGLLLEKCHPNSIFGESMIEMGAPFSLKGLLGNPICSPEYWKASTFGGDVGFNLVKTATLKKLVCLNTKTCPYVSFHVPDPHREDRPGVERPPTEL
Source text: (§4) Prostaglandin synthetase purified beef seminal vesicle ^3 H arachidonic acid (86.2 Ci/mmol), tlc separation.

[6] = tested on: Prostaglandin cyclooxygenase; assay: Human osteoporosis fibroblasts prostaglandin cyclooxygenase activity; type: cell-based; settings: read-out: Prostaglandin Cyclooxygense IC50, Table XI, 60 min incubation
Cathepsin D [7] = target: T2, Cathepsin D (Mus musculus, UniProt P18242); assay: Mouse hepatic lysosomal cathepsin D activity; type: biochemical
T2 construct: azocasein assay pH 5.0
Source text: (§5) 1. Cf1 male mouse hepatic 10% homogenates in 0.25M sucrose+0.001MEDTA,pH 7.2.
(§6) Lysosomal Enzymes - free and total [triton X-100].
as §2
Cathepsin azo casein activity -

Acid phosphatase [8] = assay: Mouse macrophage acid phosphatase activity; type: cell-based
[9] = tested on: Prostaglandin cyclooxygenase; assay: Mouse macrophage prostaglandin cyclooxygenase activity; type: cell-based
Source text: (§7) 3. Mouse macrophages J774A.1 BALB/c
as §4

Trypsin [10] = assay: Human osteoporosis fibroblasts trypsin (BAEE) activity; type: cell-based; settings: read-out: Trypsin BAEE IC50; Table XI; human osteoporosis fibroblasts, 60 min incubation
Source text: 1. Trypsin- N-benzoyl-L-arginine ethyl ester pH 8.0, hydrolytic product 253 nm.

Elastase [11] = assay: Mouse macrophage elastase activity; type: cell-based
5'-lipoxygenase = target: T3, 5'-lipoxygenase (Mus musculus, UniProt P48999); assay: Mouse hepatic 5'-lipoxygenase activity; type: biochemical; settings: Table VI; mouse hepatic, 60 min incubation; read-out: 5'-lipoxygenase IC50
T3 construct: Cf1 male mouse hepatic 10% homogenates; from tissue; host or cells: CF1 male mouse liver, 10% homogenate
T3 sequence (P48999 1-674): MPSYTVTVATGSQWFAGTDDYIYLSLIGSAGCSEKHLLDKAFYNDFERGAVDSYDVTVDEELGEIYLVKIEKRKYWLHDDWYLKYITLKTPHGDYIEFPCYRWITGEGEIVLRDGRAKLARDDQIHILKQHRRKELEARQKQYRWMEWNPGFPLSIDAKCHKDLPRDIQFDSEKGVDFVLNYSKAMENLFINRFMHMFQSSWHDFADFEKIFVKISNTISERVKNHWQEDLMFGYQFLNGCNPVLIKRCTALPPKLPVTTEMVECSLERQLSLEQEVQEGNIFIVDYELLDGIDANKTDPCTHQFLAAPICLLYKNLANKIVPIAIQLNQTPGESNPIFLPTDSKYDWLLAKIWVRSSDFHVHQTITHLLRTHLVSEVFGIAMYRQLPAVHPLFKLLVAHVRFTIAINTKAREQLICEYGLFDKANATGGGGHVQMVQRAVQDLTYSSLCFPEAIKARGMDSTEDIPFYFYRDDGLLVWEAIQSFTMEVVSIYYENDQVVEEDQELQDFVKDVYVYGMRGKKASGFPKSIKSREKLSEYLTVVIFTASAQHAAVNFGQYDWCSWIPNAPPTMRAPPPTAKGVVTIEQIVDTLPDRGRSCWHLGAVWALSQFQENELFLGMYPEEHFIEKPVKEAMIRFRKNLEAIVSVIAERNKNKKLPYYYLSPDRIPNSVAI
Source text: as §5
5'-lipoxygenase Mylari, B.L., et al, J. Med.

[12] = target: T4, Porcine Pancreatic Elastase (Sus scrofa, UniProt P00772); assay: Porcine pancreatic elastase activity in vitro; type: biochemical; settings: Table IX; commercial enzyme preparation
T4 construct: purchased; host or cells: porcine pancreas
Source text: as §1

Cathepsin D [13] = target: T5, Cathepsin D (Homo sapiens, UniProt P07339); assay: Human osteoporosis fibroblasts cathepsin D (azo-casein) activity; type: cell-based; settings: Table X; human osteoporosis fibroblasts, DMEM +10% FCS + P/S; read-out: Cathepsin D IC50
T5 construct: azocasein assay pH 5.0
Source text: Osteoporosis Human Fibroblast-CRL-1140, Be SA1

Aryl sulphatase [14] = assay: Human osteoporosis fibroblasts aryl sulphatase activity; type: cell-based; settings: read-out: Aryl Sulphatase IC50; Table X; human osteoporosis fibroblasts
Source text: 3. Aryl sulphatase- p-nitrocatechol sulfate, pH
5. 8 p-nitro-catechol product 510 nm.

in vivo = settings: mouse, Table 1, N=6
Experimental: Amine borane compounds (0 to 100 mg/kg) were administered to CF1 male mice as a single injection with six mice for each dosage. Mice were weighed daily and the number of deaths was recorded each day for a 14 day period. The LD50 value was determined by the procedure of S.C. Gad and C.S. Weil, "Statistics for Toxicologists" in Principles and Methods of Toxicology, A.W. Hayes, Ed., 2nd Edition, P 435-483 Raven Press, New York 1982.

Cf1 male mice [15] = assay: Anti-inflammatory screen, Winter's test, 2% carrageenan hind foot; type: in vivo; settings: for Anti-inflammatory: Table 1, drugs 8 or 10 mg/kg I.P. 2X, Indomethacin 10 mg/kg
Experimental: Anti-inflammatory Screen- Cf1 - male mice-Winter's Test 2% carrageenan S.C. plantar surface of hind foot, drugs administered @8 or 10 mg/kg I.P. 2X
Winter, C.A., et al, Proc. Soc.

Cf1 male mice [16] = assay: Writhing reflex, 0.6% acetic acid; type: in vivo; settings: Table 1; Indomethacin 10 mg/kg
Experimental: Writhing reflex- Cf1 -male mice- 0.6% acetic acid I.P. drugs administered @20 mg/kg/ I.P. 20 min. later - the # of stretches/10 min.
Hendershot, L.C., et al, J.

Sprague Dawley male rats = assay: Chronic adjuvant arthritis screen, Mycobacterium butyricum; type: in vivo; settings: Table 1; Indomethacin 10 mg/kg
Acid phosphatase [17] = assay: Mouse hepatic lysosomal acid phosphatase activity; type: biochemical; settings: 5 × 10^-6 M, N=6; 5 µM
Source text: as §5, §6, §3
Acid phosphatase activity -

Acid phosphatase [18] = assay: Rat PMNs acid phosphatase activity; type: cell-based; settings: 5 × 10^-6 M, N=6; 5 µM
Source text: (§8) 2. PMNs-polymorphonuclear neutrophils-rat peritoneal cavity 0.5% oyster glycogen.
as §3

cAMP = assay: PMNs cAMP levels, Gilman's radioimmune assay; type: cell-based, rat; settings: 5 × 10^-6 M, N=6
Source text: as §8
cAMP levels Gilman's radioimmune assay. ^3 H(G)Cyclic-3', 5'-adenosine monophosphate.

Cathepsin [19] = target: T6, Cathepsin (Rattus norvegicus, UniProt P24268); assay: Rat PMNs cathepsin activity; type: cell-based; settings: pH 5; 5 × 10^-6 M, N=6; read-out: Rat PMNs Cathep.
T6 construct: azocasein assay pH 5.0
Source text: as §8, §2

Cathepsin D [20] = target: T2, Cathepsin D; assay: Mouse macrophage cathepsin D activity; type: cell-based; settings: Table VII; mouse macrophage cultured cells, DMEM +10% FCS +P/S, 60 min incubation; read-out: Cathepsin D IC50
Source text: as §7, §2

Aryl sulphatase [21] = assay: Mouse macrophage aryl sulphatase activity; type: cell-based; settings: Table VII; mouse macrophage cultured cells, 60 min incubation; read-out: Aryl Sulphatase IC50
Sprague Dawley Rats = assay: Anti-inflammatory activity in Sprague Dawley rats; type: in vivo; settings: Table IV; 8 mg/kg I.P.
[22] = tested on: Hepatic oxidative phosphorylation; assay: Hepatic oxidative phosphorylation, Gilson oxygraph; type: biochemical, mouse; settings: 10^-6 M; 1 µM
Source text: as §5

T2 sequence (P18242 65-410): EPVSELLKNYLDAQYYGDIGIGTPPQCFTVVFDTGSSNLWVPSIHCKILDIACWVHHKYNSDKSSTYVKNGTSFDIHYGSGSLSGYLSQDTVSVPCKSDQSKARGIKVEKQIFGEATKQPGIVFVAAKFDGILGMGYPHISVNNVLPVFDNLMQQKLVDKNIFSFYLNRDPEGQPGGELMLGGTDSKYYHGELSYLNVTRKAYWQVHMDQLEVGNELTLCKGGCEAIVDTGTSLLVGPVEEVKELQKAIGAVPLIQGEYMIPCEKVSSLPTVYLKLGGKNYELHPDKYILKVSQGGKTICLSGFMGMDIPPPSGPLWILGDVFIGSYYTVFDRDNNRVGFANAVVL
T6 sequence (P24268 65-407): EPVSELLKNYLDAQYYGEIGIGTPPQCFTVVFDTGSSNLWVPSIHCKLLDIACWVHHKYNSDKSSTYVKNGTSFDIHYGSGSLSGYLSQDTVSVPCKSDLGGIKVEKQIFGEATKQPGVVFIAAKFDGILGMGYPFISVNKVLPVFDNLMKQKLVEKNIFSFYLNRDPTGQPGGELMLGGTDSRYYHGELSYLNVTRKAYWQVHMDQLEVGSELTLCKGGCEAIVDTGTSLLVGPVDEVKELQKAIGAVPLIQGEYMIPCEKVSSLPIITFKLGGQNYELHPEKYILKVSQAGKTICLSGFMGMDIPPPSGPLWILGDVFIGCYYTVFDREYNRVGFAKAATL
T5 sequence (P07339 65-412): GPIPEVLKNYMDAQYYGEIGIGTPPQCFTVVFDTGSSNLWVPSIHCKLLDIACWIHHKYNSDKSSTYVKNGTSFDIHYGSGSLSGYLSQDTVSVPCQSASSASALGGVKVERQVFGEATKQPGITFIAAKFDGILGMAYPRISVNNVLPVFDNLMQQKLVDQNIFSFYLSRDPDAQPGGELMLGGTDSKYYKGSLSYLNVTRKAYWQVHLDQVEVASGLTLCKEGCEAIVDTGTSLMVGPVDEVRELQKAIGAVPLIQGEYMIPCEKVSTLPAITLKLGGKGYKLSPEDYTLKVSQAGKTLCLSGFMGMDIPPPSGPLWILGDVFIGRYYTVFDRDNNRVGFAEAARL
T4 sequence (P00772 27-266): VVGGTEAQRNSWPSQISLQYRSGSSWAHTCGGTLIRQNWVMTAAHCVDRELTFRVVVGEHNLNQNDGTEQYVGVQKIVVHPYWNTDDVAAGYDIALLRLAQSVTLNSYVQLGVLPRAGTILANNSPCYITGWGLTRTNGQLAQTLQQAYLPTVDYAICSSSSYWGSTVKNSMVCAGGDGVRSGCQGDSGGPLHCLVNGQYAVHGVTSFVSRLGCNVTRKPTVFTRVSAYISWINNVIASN

[BH3-][NH+]1CCOCC1 [Compound 1, Morpholine-borane]
response vs control in vivo (Cf1 male mice [1]; Mus musculus, ip, read-out: Writhing Reflex Cf1 Mice): 15.2% | IC50 (Elastase [2]): 1.84 µM | IC50 (Cathepsin [3]): 72.8 µM | IC50 (Acid phosphatase [4]): 10.3 µM | IC50 (Trypsin [5]; read-out: Trypsin BAEE IC50; Table VIII; mouse macrophages, 60 min incubation): 2.39 µM | IC50 (Prostaglandin synthetase): 2.36 µM | IC50 [6]: 3.41 µM | IC50 (Cathepsin D [7]; Table V, mouse hepatic, 60 min incubation, read-out: Cathepsin D IC50): 0.88 µM | IC50 (Acid phosphatase [8]; read-out: Acid Phosphatase IC50; Table VII; mouse macrophage cultured cells, 60 min incubation): 3.18 µM | IC50 ([9]; read-out: Prostaglandin Cyclooxygenase IC50; Table VIII; mouse macrophages, 60 min incubation): 1.47 µM | IC50 (Trypsin [10]): 7.88 µM | IC50 (Elastase [11]; read-out: Elastase IC50; Table VIII; mouse macrophages, 60 min incubation): 5.94 µM | IC50 (5'-lipoxygenase): 66.9 µM | IC50 [12]: 14.9 µM | IC50 (Cathepsin D [13]): 4.4 µM | IC50 (Aryl sulphatase [14]): 8.99 µM

COc1ccc2c(c1)c(CC(=O)O)c(C)n2C(=O)c1ccc(Cl)cc1 [Indomethacin, reference compound]
LD50 at 336 h (in vivo): 28 mg/kg | Anti-inflammatory (Cf1 male mice [15]): 22 % Control | Writhing (Cf1 male mice [16]): 43 % Control | activity at 5 µM (Cathepsin D [7]; pH 5, read-out: Mouse Liver Cathep.): 67% | Anti-arthritic (Sprague Dawley male rats): 27 % Control | Mouse Liver Acid Phosph. (Acid phosphatase [17]): 86 + 4 % Control | Rat PMNs Acid Phoph. (Acid phosphatase [18]): 100 + 2 % Control | PMNs cAMP (cAMP): 80 % Control | activity at 5 µM (Cathepsin [19]): 100%

C[N+](C)(C)[BH2-]C(=O)O [Compound 3, Trimethylamine-carboxyborane]
Writhing Reflex Cf1 Mice (Cf1 male mice [1]; Table IV, 8 mg/kg I.P.): 11.5 % Control | LD50 at 336 h (in vivo): 1800 mg/kg | Anti-inflammatory (Cf1 male mice [15]): 79 % Control | Anti-Inflammatory Activity Mice (Cf1 male mice [15]; Table IV, 8 mg/kg I.P.): 58 % Control | IC50 (Trypsin [5]; Table VIII; mouse macrophages, 60 min incubation; read-out: Trypsin BAEE IC50): 2.78 µM | Writhing (Cf1 male mice [16]): 29 % Control | IC50 (Cathepsin D [20]): 6.71 µM | activity at 5 µM (Cathepsin D [7]; pH 5, 5 × 10^-6 M, N=6, read-out: Mouse Liver Cathep.): 56% | Anti-arthritic (Sprague Dawley male rats): 53 % Control | IC50 (Acid phosphatase [8]; Table VII; mouse macrophage cultured cells, 60 min incubation; read-out: Acid Phosphatase IC50): 1.04 µM | IC50 ([9]; Table VIII; mouse macrophages, 60 min incubation; read-out: Prostaglandin Cyclooxygenase IC50): 2.81 µM | IC50 (Elastase [11]; Table VIII; mouse macrophages, 60 min incubation; read-out: Elastase IC50): 2.14 µM | IC50 (Aryl sulphatase [21]): 7.42 µM | Mouse Liver Acid Phosph. (Acid phosphatase [17]): 82 + 5 % Control | Rat PMNs Acid Phoph. (Acid phosphatase [18]): 50 + 3 % Control | Anti-Inflammatory Activity Sprague Dawley Rats (Sprague Dawley Rats): 59 % Control | Hepatic Oxidative Phosphorylation Succinate State 3 [22]: 63 + 4 % Control | Hepatic Oxidative Phosphorylation Succinate State 4 [22]: 122 + 14 % Control | Hepatic Oxidative Phosphorylation alpha-Ketoglutrate State 3 [22]: 70 + 20 % Control | Hepatic Oxidative Phosphorylation alpha-Ketoglutrate State 4 [22]: 127 + 22 % Control | PMNs cAMP (cAMP): 99 % Control | activity at 5 µM (Cathepsin [19]): 14%

— patent US5312816A, “Method of combatting osteoporosis in mammalian subjects, utilizing organic boron compounds” (priority 1993, dated 1994)
